{
  "source": "patent US20230048170A1",
  "about": "“COMPOSITION INCLUDING CATIONIC POLYSACCHARIDE AND ANIONIC ANTIOXIDANT” (priority 2019, published 2023)",
  "assay": "Solubilisation of baicalin in alkaline water with or without polyquaternium-67",
  "assay_type": "physicochemical",
  "conditions": "pH 10",
  "protocol": "In Examples 1-3, a polyquaternium-67 (PQ-67) was dissolved in water to prepare a PQ-67 aqueous solution. Then, the pH of the solution was adjusted to 10 by adding 1M NaOH aqueous solution. Next, baicalin was added to the alkaline solution as much as possible. In the compositions according to Examples 1-3, […] was able to be solubilized up to an amount of 0.1% by weight, 0.2% by weight and 0.25% by weight, respectively, relative to the total weight of the composition.\nOn the other hand, in the composition according to Comparative Example 1 including no PQ-67, the solubilized amount of […] was limited only to 0.025% by weight relative to the total weight of the composition.\nThus, by forming a complex by the electrostatic interaction, the solubility of baicalin increased up to 10 folds.",
  "data": [
    {"smiles": "O=C(O)[C@H]1O[C@@H](Oc2cc3oc(-c4ccccc4)cc(=O)c3c(O)c2O)[C@H](O)[C@@H](O)[C@@H]1O", "note": "[baicalin]", "values": [
      {"measurement": "increase of solubility of baicalin by complex formation with PQ-67", "value": "up to 10 folds"}
    ]}
  ]
}
